Test [1] concerns the target T1, hSP-A (human SP-A, isolated from BAL of PAP patient) (Homo sapiens, UniProt Q8IWL1+Q8IWL2).
T1 construct: Human PAP patient, BAL isolated; from tissue; host or cells: bronchoalveolar lavage fluid of a patient with pulmonary alveolar proteinosis
Nature of the test: Microscale thermophoresis (MST) binding to hSP-A. To be noted: for Kd: hSP-A, apparent KD at protein 9 nM, 25°C, read-out: KD (MST Measurements) ±Kd confidence. On the procedure:
(§1) Human-isolated and recombinant proteins were labeled using the Monolith Protein Labeling Kit RED-NHS according to the manufacturer’s instructions. This kit reagent reacts with lysine residues present in the sequence of the protein, as the dye carries a reactive NHS-ester group. Briefly, as all the proteins were in a Tris buffer solution, the buffer solution was exchanged to a HEPES-based buffer with the A-Column provided in the kit. Then, 10 µM solution of protein was incubated with a threefold excess of dye in 100 µL for 30 min at room temperature protected from light. The labeled protein was separated from the free dye using the B-Column provided in the kit. The concentration of the labeled protein {c(M) = [A205 − (A650 × 0.19)]/[31 × MWprotein]) and the degree of labeling [DOL = A650/(195.000 M^−1cm^−1 × c(M)] were calculated according to the manufacturer’s instruction, measuring absorption at 205 nm (for the protein) and 650 nm (for the dye).
(§2) Thermophoresis is the phenomenon of movement of particles along a temperature gradient. Solvated molecules move from higher to lower temperature. This movement or depletion of molecules from the heat is quantified by the Soret coefficient ST: Chot/Ccold = exp (−STΔT). The depletion of molecules depends on the interface between molecule and solvent. Therefore, thermophoresis monitors changes in size, charge, and solvation entropy of molecules. In this regard, the thermophoresis or movement of a protein is different from a protein-ligand complex ([35]). Microscale or miniaturized thermophoresis allows to monitor molecular interaction in only a few microliters. For this method, the fluorescently labeled protein is mixed with a decreasing concentration of a ligand in 16 glass capillaries. The initial fluorescence is measured (Fcold), then an infrared (IR) laser beam is switched on and focused on the center of the first capillary, where the temperature gradient is created from the center to the walls of the capillary. At the same time, a dichroic mirror allows fluorescence from the labeled protein to be monitored (Fhot). The rate of fluorescence change is related to the amount of protein-ligand complex form, which depends on the ligand concentration, due to changes in size, charge, or hydration shell of the protein-ligand complex. The dissociation constant KD is calculated from the binding curve derived by plotting the normalized fluorescence (FNorm) at a given time after the start of the thermophoresis against the respective ligand concentration ([33], [34], [36]).
(§3) Samples were measured in a Monolith NT.115, using Premium Capillaries (MO-K025) and Monolith Protein labeling kit RED-NHS (MO-L011) all from NanoTemper Technologies (Munich, Germany). Solutions of a 3X concentrated MST buffer (15 mM Tris, 300 mM NaCl, 0.3% Tween 20, 15 mM CaCl2, pH 7.4), sugars (270 mM) or GAG (30 µM) solution, and protein solution (27 nM) were prepared separately. When a different concentration was used, a threefold concentration of the solution was prepared. Afterward, sugars and GAG solutions were diluted 1:2 with water in a series of 16 steps. For the measurement, 3 µL of each prepared component (3 µL MST buffer, 3 µL GAG solution, and 3 µL labeled protein) was mixed, centrifuged shortly to eliminate precipitates, and loaded into a glass capillary. The final concentrations of the sugars were thus between 90 –and 0.00275 mM or GAGs 10 and 0.000305 µM for GAGs, respectively. The 16 capillaries were loaded in the Monolith NT.115 and measurements were performed with a 40% LED power and medium MST power at 25°C.
(§4) Every set of 16 capillaries was prepared in 3–6 replicates (technical replicates) and measured. The replicate measures of every capillary were plotted against concentration and outliers were excluded, using the MO Affinity Analysis 3 v01 software (NanoTemper Technologies, Munich, Germany). […]
A general note: MST reads how a fluorescent partner responds to local heating, with and without ligand.

Test [2] has as its target T2, rhSP-D (human recombinant SP-D) (Homo sapiens, UniProt P35247).
T2 construct: host or cells: CHO cells
T2 sequence (P35247 21-375): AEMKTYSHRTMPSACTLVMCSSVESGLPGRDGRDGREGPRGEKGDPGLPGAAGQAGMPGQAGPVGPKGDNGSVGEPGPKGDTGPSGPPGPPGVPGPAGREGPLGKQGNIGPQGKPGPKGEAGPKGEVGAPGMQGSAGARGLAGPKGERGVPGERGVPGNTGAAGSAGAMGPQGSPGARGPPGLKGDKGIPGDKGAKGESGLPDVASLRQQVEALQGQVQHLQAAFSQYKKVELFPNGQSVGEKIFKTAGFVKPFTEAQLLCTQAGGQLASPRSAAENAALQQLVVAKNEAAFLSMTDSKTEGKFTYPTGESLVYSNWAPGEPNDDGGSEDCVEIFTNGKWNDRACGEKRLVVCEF
Nature of the test: Microscale thermophoresis (MST) binding to rhSP-D. To be noted: apparent KD at protein 9 nM, 25°C, read-out: KD (MST Measurements) ±Kd confidence. On the procedure:
as §1, §2, §3, §4

Another test concerns human SP-D. On the set-up: method as in Lu et al.; [19]. To be noted: ref Lu et al., [19]; cited from earlier work.
In another test the test system is recombinant human SP-D. Details: method as in van Eijk et al.; [42]. To be noted: ref van Eijk et al., [42], read-out: IC50 mean ± SE; cited from earlier work.
Test [3] has as its system recombinant construct containing the N-terminal tagged fusion protein +neck and CRD of human SP-D. Details: method as in Crouch et al. 2006 [47]. To be noted: ref Crouch et al. 2006 [47], read-out: I50 mean ± SE; cited from earlier work.
Test [4] concerns human SP-A. On the set-up: method as in Haagsman et al.; [18]. To be noted: ref Haagsman et al., [18]; cited from earlier work.
Test [5] relates to human SP-A. On the set-up: method as in Haurum et al.; [41]. To be noted: ref Haurum et al., [41], read-out: IC50 mean ±SD; cited from earlier work.

Molecules are shown by their SMILES.

T1 sequence (Q8IWL2 21-248): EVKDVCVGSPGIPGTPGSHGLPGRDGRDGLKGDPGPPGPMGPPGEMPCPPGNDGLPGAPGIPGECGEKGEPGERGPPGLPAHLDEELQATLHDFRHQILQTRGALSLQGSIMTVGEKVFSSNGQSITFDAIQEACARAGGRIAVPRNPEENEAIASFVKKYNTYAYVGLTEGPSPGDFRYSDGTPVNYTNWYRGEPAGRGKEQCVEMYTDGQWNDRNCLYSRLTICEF
T1 sequence (Q8IWL1 21-248): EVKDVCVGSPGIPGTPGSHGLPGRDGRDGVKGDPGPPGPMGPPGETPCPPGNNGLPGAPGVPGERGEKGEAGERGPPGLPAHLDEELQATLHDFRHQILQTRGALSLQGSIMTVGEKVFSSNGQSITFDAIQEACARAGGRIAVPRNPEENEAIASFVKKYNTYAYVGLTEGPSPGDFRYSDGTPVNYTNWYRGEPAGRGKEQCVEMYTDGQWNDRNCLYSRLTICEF

Consider `O=C[C@H](O)[C@@H](O)[C@H](O)[C@H](O)C(=O)O` [GlcAc, D-glucuronic acid], for which the Kd in test [1] was 0.09 mM; in test [2] it was 0.005 mM.

As for `O=C[C@H](O)[C@@H](O)[C@@H](O)[C@H](O)CO` [Gal, D(+)-galactose], the IC50 in the test with human SP-D was 22 mM; with recombinant human SP-D it was 7.9 ± 3.8 mM; in test [3], 10 ± 2 mM. Moreover, the “Amount of SP-A bound” value in the test on human SP-A [4] is reported as 100%. In addition, in test [1] (MST, 0-10 mM calcium, 0-20 mM EDTA (Fig. 1D, E)), the “binding of hSP-A to sugar, calcium dependence” value was “only seen in the presence of calcium”. In addition, the figures for the Kd in test [1] and in test [2] were 1.94 mM and 0.82 mM, respectively.

`OC[C@@H]1OC(O)[C@@H](O)[C@H](O)[C@H]1O` (stereo partly drawn) [Glc, L(−)-glucose]: the IC50 with human SP-D was 9.6 mM; in the test on human SP-A [5], 30 ± 1 mM; with recombinant human SP-D, 4 ± 1 mM; in test [3], 4.1 ± 0.9 mM. For the same compound, the “Amount of SP-A bound” value with human SP-A [4] was 100%. The results for the Kd in test [1] and in test [2] were 1.39 mM and 0.12 mM, respectively.

Turning to `OC[C@H]1O[C@H](O[C@H]2[C@H](O)[C@@H](O)[C@H](O)O[C@@H]2CO)[C@H](O)[C@@H](O)[C@@H]1O` [Maltose, D(+)-maltose], the IC50 in the test on human SP-D was 5.1 mM; in the test on human SP-A [5], 23 ± 5 mM; in the test on recombinant human SP-D, 4.1 ± 0.9 mM; in test [3], 2.7 ± 0.4 mM. Moreover, the Kd in test [1] came to 0.03 mM; in test [2], 0.45 mM.

As to `CC(=O)N[C@@H]1C(O)O[C@H](CO)[C@@H](O)[C@@H]1O` (stereo partly drawn) [ManNAc, N-acetyl-D-mannosamine monohydrate], the IC50 in the test on human SP-A [5] is 8 ± 1 mM; with recombinant human SP-D it was 1.8 ± 0.3 mM; in test [3], 2.1 ± 0.4 mM. For the same compound, the Kd stood at 0.06 mM in test [1] and 5.39 mM in test [2].

For `C[C@H](O)[C@@H](O)[C@@H](O)[C@H](O)C=O` [Fuc, L-fucose], the figures for the IC50 with human SP-D, with human SP-A [5] and in the test on recombinant human SP-D were 6.5 mM, 22 ± 1 mM and 4.4 ± 0.1 mM, respectively. Further, the “Amount of SP-A bound” value in the test on human SP-A [4] is listed as 100%. The Kd was 4.07 mM in test [1] and 0.37 mM in test [2].

Regarding `CC(=O)N[C@@H]1[C@@H](O)[C@H](O)[C@@H](CO)O[C@@H]1O` [GlcNAc, N-acetyl-D-glucosamine], the figures for the IC50 (with human SP-D; in the test with recombinant human SP-D; in test [3]) were 28.5 mM, 13.5 ± 4.5 mM and 14 ± 2 mM, respectively. In addition, the “Amount of SP-A bound” value in the test with human SP-A [4] was 2%. Also, the Kd in test [1] turned out to be 0.16 mM; in test [2] it was 0.13 mM.

As for `CC(=O)N[C@H]1[C@H]([C@H](O)[C@H](O)CO)OC(O)(C(=O)O)C[C@@H]1O` (stereo partly drawn) [Neu5Ac, N-acetyl-neuraminic acid], the Kd in test [1] was determined as 0.21 mM; in test [2], 0.27 mM.

As to `OC[C@H]1OC(O)[C@@H](O)[C@@H](O)[C@@H]1O` (stereo partly drawn) [Man, D(+)-mannose], the IC50 was 7.5 mM in the test on human SP-D, 39 ± 3 mM in the test with human SP-A [5], 2.9 ± 0.4 mM with recombinant human SP-D and 5.3 ± 0.5 mM in test [3]. Further, in the test with human SP-A [4], the “Amount of SP-A bound” value is on record as 95 ± 10%. Besides, the Kd was found to be 0.14 mM in test [1] and 0.02 mM in test [2].

As to `CC(=O)N[C@H]1C(O)O[C@H](CO)[C@H](O)[C@@H]1O` (stereo partly drawn) [GalNAc, N-acetyl-D-galactosamine], the “Amount of SP-A bound” value in the test on human SP-A [4] is 7%. Also, the Kd in test [1] was determined as 7.27 mM; in test [2], 0.39 mM.

Values taken from publication PMC11380953, “Multivalent, calcium-independent binding of surfactant protein A and D to sulfated glycosaminoglycans of the alveolar epithelial glycocalyx” (American Journal of Physiology - Lung Cellular and …, 2024).
